Reference: US20050266575A1 (priority 2004, published 2005)
No end group written: not given here.

Assays:
[1] = molecular target: T1, human nociceptin receptor (ORL-1) (Homo sapiens, UniProt P41146); experiment: Nociceptin receptor binding assay: binding of 125I-Tyr14-nociceptin to ORL-1 on HEK-293 cell membranes; details: for Ki: competition with 0.5 nM 125I-Tyr14-nociceptin, HEK-293 cell membranes, 3 experiments in duplicate; for Ki(x)/Ki(WT): ratio of variant Ki to nociceptin Ki
T1 construct: expressed in transfected cells
Description: Binding of peptides to the ORL-1 Receptor. […] ORL-1 membranes were diluted in binding buffer such that 25 μL containing 1 microgram (μg) of membrane was added to each well of a standard 96-well microtiter in binding buffer. […] Plates were incubated for two hours at room temperature and the reactions were filtered over GF/C Filterplates (Perkin Elmer-NEN), prewetted in 0.03% polyethleneimine, in a Filtermate 196 apparatus (Packard). Plates were washed six times with binding buffer in the filtration apparatus, then dried under vacuum for 1-2 hours. Twenty five microliters (25 μL) Microscint 20 (Packard) per well was added to solubilize bound radioactivity. The plates were then sealed and counted on a Packard Top Count to determine radioactivity bound to the membranes. Curves were fitted and IC50 values determined using Graphpad Prizm software (v3.0).

ORL1 [2] = molecular target: T2, ORL1 (Homo sapiens, UniProt P41146); experiment: Calcium flux (FLIPR) in carbachol-sensitized HEK-293 cells expressing ORL-1 receptor; type: cell-based; design: expressed in transfected cells; host or cells: HEK-293 cells expressing ORL-1 receptor; details: for EC50: HEK-293 cells expressing ORL-1, pretreated with 100 μM carbachol, read-out: EC50 (calcium release); for EC50(x)/EC50(WT): ratio of variant EC50 to nociceptin EC50
Description: HEK-293 cells expressing ORL-1 receptor were plated at a density of 50,000 cells/well in a total volume of 50 ↑L onto 96-well plates. Two days later cells were prepared for assay using the FLIPR Calcium Assay Kit (Molecular Devices) according to manufacturer's directions, with the exception that the volume of dye mix added to each well was 50 μL instead of 100 μL. Cells were then treated with 100 μM carbachol in 100 μL. […] Data points were collected at one per second for 120 seconds, then one every three seconds for 30 seconds for a total collection time of 150 seconds after both the first and second additions.
This produced a “percent of carbachol response” for each dose. The experiment was repeated 6 times and the high and low values for each concentration were dropped. The data were used to generate EC50 curves using GraphPad Prizm v.3.0 software.
Target sequence in this assay (P41146 whole entry): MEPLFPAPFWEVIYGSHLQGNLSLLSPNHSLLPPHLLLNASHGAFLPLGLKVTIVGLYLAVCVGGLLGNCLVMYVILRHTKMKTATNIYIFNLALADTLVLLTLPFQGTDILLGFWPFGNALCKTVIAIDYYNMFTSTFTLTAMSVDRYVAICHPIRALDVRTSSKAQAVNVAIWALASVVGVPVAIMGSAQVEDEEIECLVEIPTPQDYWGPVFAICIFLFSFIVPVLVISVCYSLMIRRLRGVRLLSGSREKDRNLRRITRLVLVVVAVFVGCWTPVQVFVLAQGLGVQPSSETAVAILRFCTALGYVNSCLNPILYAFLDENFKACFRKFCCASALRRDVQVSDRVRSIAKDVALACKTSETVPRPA

ORL1 [3] = molecular target: T2, ORL1; details: cited from earlier work
Target sequence in this assay (P41146 whole entry, species assumed): as the sequence (P41146 whole entry) above

T1 sequence (P41146 whole entry): as above

Compound	Ki [1] [nM]	Ki(x)/Ki(WT) [1]	EC50 (ORL1 [2]) [nM]	EC50(x)/EC50(WT) (ORL1 [2])	fold lower affinity for ORL1 than nociceptin (ORL1 [3]) [fold]
CCCC[C@H](NC(=O)CNC(=O)[C@@H](NC(=O)[C@H](Cc1ccccc1)NC(=O)CNC(=O)CNC(=O)[C@@H](N)Cc1ccccc1)[C@@H](C)O)C(=O)N[C@@H](CCCNC(=N)N)C(=O)N[C@@H](CCCCN)C(=O)N[C@@H](CO)C(=O)N[C@@H](C)C(=O)N[C@@H](CCCNC(=N)N)C(=O)N[C@@H](CCCCN)C(=O)N[C@@H](CC(C)C)C(=O)N[C@@H](C)C(=O)N[C@@H](CC(N)=O)C(=O)N[C@@H](CCC(N)=O)C(=O)O [Peptide A7nleu]	0.5	0.7	29	12	
CCCC[C@H](NC(=O)[C@H](CO)NC(=O)[C@H](CCCCN)NC(=O)[C@H](CCCNC(=N)N)NC(=O)[C@H](C)NC(=O)CNC(=O)[C@@H](NC(=O)[C@H](Cc1ccccc1)NC(=O)CNC(=O)CNC(=O)[C@@H](N)Cc1ccccc1)[C@@H](C)O)C(=O)N[C@@H](CCCNC(=N)N)C(=O)N[C@@H](CCCCN)C(=O)N[C@@H](CC(C)C)C(=O)N[C@@H](C)C(=O)N[C@@H](CC(N)=O)C(=O)N[C@@H](CCC(N)=O)C(=O)O [Peptide A11nleu]	1.9	2.6	4.2	1.8	
AGGFTGARKSARKLANQ [Peptide F1A]	91	127	1440	601	
FAGFTGARKSARKLANQ [Peptide G2A]	191	265	1390	581	
FGAFTGARKSARKLANQ [Peptide G3A]	1.6	2.2	13	5.5	
FGGATGARKSARKLANQ [Peptide F4A]	188	262	3880	1617	
FGGFAGARKSARKLANQ [Peptide T5A]	6.4	8.9	159	66	
FGGFLGARKSARKLANQ [Peptide T5L]	2.2	3.1	14	5.7	
FGGFSGARKSARKLANQ [Peptide T5S]	1.4	2.0	27	11	
FGGFTAARKSARKLANQ [Peptide G6A]	1.5	2.1	39	16	
FGGFTGAAKSARKLANQ [Peptide R8A]	50	69	69	29	
FGGFTGAKKSAKKLANQ [R8K/R12K]	3.9	5.4	53.5	22	
FGGFTGAKKSARKLANQ [Peptide R8K]	32	45	64	27	
FGGFTGARASARKLANQ [Peptide K9A]	1.5	2.1	2.8	1.2	
FGGFTGARKAARKLANQ [Peptide S10A]	0.8	1.2	42	18	
FGGFTGARKSAAKLANQ [Peptide R12A]	2.8	3.9	1.3	0.5	
FGGFTGARKSAKKLANQ [Peptide R12K]	0.8	1.1	2.4	1.0	
FGGFTGARKSARALANQ [Peptide K13A]	1.5	2.1	1.1	0.5	
FGGFTGARKSARKAANQ [Peptide L14A]	0.2	0.3	7	2.9	
FGGFTGARKSARKLAAQ [Peptide N16A]	0.3	0.4	1.7	0.7	
FGGFTGARKSARKLANA [Peptide Q17A]	0.8	1.1	12	4.8	
FGGFTGARKSARKLGNQ [Peptide A15G]	0.2	0.3	1.9	0.8	
FGGFTGARKSGRKLANQ [Peptide A11G]	3.2	4.4	11	4.8	
FGGFTGARKSLRKLANQ [Peptide A11L]	0.9	1.2	8.3	3.5	
FGGFTGARKSSRKLANQ [Peptide A11S]	1.2	1.7	1.2	0.5	
FGGFTGGRKSARKLANQ [Peptide A7G]	7.7	11	18	7.4	
FGGFTGLRKSARKLANQ [Peptide A7L]	0.8	1.1	13	5.2	
FGGFTGSRKSARKLANQ [Peptide A7S]	1.5	2.1	5.6	2.3	
Y G G F L R R I R P K L K W D N Q [Dynorphin A]					100
